{
  "source": "patent US8846393B2",
  "about": "“Methods of improving stem cell homing and engraftment” (Gamida-Cell Ltd., priority 2005, dated 2014)",
  "tested_on": "NOD/SCID mice",
  "assay": "In vivo analysis of homing of CFSE-labeled cells to bone marrow",
  "text": "FIGS. 1a-1i are a graphic representation of flow cytometry analysis of the effect of nicotinamide on homing of hematopoietic stem cells into bone marrow of NOD/SCID mice. Non-cultured mononuclear cells or their entire progeny following 3-week expansion with cytokines and nicotinamide (cytokines+NA), or cytokines alone (cytokines) were labeled with CFSE and infused into sublethally irradiated NOD/SCID mice (10×10^6 cells/mouse for the non-cultured group containing 5×10^4 CD34+ cells and the total progeny of 5×10^4 CD34+ cells following 3-week expansion with or without nicotinamide; 20×10^6 cells/mouse containing 180×10^4 CD34+ cells). FIG. 1a is a histogram of the results of flow cytometry of recipient's bone marrow cells showing homing of CFSE+/CD34+ cells after transplantation. FIG. 1b is a histogram of the results of flow cytometry of recipient's bone marrow cells showing homing of total CFSE+ cells after transplantation. Homing of human cells is presented as number of positive events (cytometry) per 100,000 BM cells analyzed. Each bar represents the average ±SE of 3 independent experiments (6-7 mice/experimental group). […] Total human cells that home to the BM are gated (see area R2) based on low side scatter (y axis) and log fluorescence distribution of CFSC expression (x axis) (FIGS. 1c-1f). The bright fluorescence of CFSE was sufficient to separate labeled human cells from unlabeled murine cells by at least 1 log. Cells gated in R2 were then analyzed for CFSE (x axis) and CD34-APC (y axis) (FIGS. 1g-1i). […] After labeling, cells were washed three times in PBS supplemented with 10% FCS and analyzed by flow cytometry for fluorescence intensity, then injected intravenously into sublethally irradiated NOD/SCID mice (10-20 million cells per mouse). […] Homing of human cells was detected by flow cytometry via visualization of CFSE-stained cells over a background of unlabeled murine cells. The bright fluorescence of CFSE was sufficient to separate labeled human cells from unlabeled murine cells by at least 1 log. […]",
  "data": [
    {"smiles": "NC(=O)c1cccnc1", "note": "[nicotinamide]", "values": [
      {"measurement": "homing of CD34+ cells to bone marrow relative to non-cultured CD34+ cells", "setting": "3-week culture with cytokines + nicotinamide, 24 hours post transplantation, n=21, p<0.05", "value": 6, "unit": "fold"},
      {"measurement": "homing of cultured cells (MNC) compared to nicotinamide-untreated cells", "setting": "3-week culture with cytokines + nicotinamide, total CFSE+ cells, 24 hours post transplantation, n=21, p<0.05", "value": 2, "unit": "fold"},
      {"measurement": "homing to bone marrow over identical cells cultured without nicotinamide", "setting": "summary statement on Example 2, mononuclear cells exposed to nicotinamide before transplantation", "value": "sixfold"}
    ]}
  ]
}
